Source: patent US20100028892A1, “YEAST BASED EXPRESSION OF PROTEASES AND METHODS OF USE” (Burnham Institute for Medical Research, priority 2008, published 2010)

How the values were obtained:
Caspases = assay: validation of 384 well yeast-based Caspase-dependent lacZ reporter gene assays with pharmacological inhibitors; format: cell-based, human
Text: When converting the yeast-based protease reporter system to HTS assay, conditions from agar plates to liquid medium in microtiter wells must be revised. This revision comprises, utilizing the measured β-galactosidase produced by yeast carrying the Caspase-cleavable reporter proteins, and assaying the colorimetric product (OD620nm) derived from X-gal substrate in 384 well plates, as a measure of the lacZ reporter gene activity. We compared β-galactosidase activity produced in the presence or absence of the broad-spectrum caspase inhibitory compound, zVAD-fmk ([…]-Valinyl-Alaninyl-Aspartyl-fluoromethylketone). Among the variables that were initially interrogated were initial seeding cell density, time of culture, concentration of X-gal substrate, and supporting carbohydrate (raffinose vs mannose). Note that it was determined that it is not advisible to employ glucose in yeast media because it represses the GAL1 promoter used in some plasmids. An example of data obtained using the plural-component system of Fas/FADD/Caspase-8 is presented. All variables tested altered the signal:noise ratio of the assay. […] For the two-component system of ASC/Caspase-1 and for the plural-component system of NALP1ΔLRR/ASC/Caspase-1, the same conditions were optimal, among those tested (not shown). For the Fas/Fadd/Caspase 8, the caspase and adaptor protein (Fadd) were expressed at relatively small amounts (a weak promoter and low copy number plasmid are used) and the upstream activator (Fas) was expressed in a large amount.
The 384 well assay format was further validated, using zVAD-fmk, a peptidyl inhibitor with broad-spectrum activity against animal Caspases. […]
The validation results of a yeast-based Caspase assay using a pharmacological inhibitor of Caspases are shown in FIG. 11 consisting of FIGS. 11A-C (A) Caspase-1, single-component assay. […] For (A-C), relative absorbance at 620 nm was measured (mean ±std dev; n=3-5 independent experiments). […]
(§1) Assays were performed in a total volume of […] in triplicate. […] Absorbance at 620 nm was measured 2-3 days after culture at 30° C.

[1] = target: T1, Caspase9 activated with Apaf* (Homo sapiens, UniProt P55211); assay: yeast 384 well β-galactosidase reporter assay, Caspase9 activated with Apaf*; format: cell-based; conditions: Caspase9 activated with Apaf* in yeast, 384 well β-galactosidase activity assay
T1 construct: Caspase (all full-length zymogen proforms) expression plasmids; HA (N); expressed in transfected cells; host or cells: Saccharomyces cerevisiae EGY48
T1 sequence (P55211 1-416): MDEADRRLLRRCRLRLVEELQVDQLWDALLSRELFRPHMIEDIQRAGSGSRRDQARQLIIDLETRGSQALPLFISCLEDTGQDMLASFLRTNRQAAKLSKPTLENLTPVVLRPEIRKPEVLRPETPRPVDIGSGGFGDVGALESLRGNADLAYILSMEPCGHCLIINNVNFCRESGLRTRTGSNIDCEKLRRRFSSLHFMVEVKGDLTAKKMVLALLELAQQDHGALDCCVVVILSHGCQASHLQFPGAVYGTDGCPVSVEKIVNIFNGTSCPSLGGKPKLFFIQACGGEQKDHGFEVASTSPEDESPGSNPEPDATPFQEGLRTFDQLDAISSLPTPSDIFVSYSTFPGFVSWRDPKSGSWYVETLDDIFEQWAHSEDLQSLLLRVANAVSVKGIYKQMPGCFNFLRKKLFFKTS
Text: (§2) When converting the yeast-based protease reporter system to HTS assay, conditions from agar plates to liquid medium in microtiter wells must be revised. This revision comprises, utilizing the measured β-galactosidase produced by yeast carrying the Caspase-cleavable reporter proteins, and assaying the colorimetric product (OD620nm) derived from X-gal substrate in 384 well plates, as a measure of the lacZ reporter gene activity. We compared β-galactosidase activity produced in the presence or absence of the broad-spectrum caspase inhibitory compound, zVAD-fmk ([…]-Valinyl-Alaninyl-Aspartyl-fluoromethylketone). […] Note that it was determined that it is not advisible to employ glucose in yeast media because it represses the GAL1 promoter used in some plasmids. […]
(§3) Yeast expressing various Caspases alone (at high levels) or in combination with upstream activators (at low levels) and cleavable substrates containing appropriate tetrapeptides reorganized by these proteases were used in 384 well β-galactosidase activity assays to assess inhibition by zVAD-fmk. The compound was titrated into assays at various concentrations and percentage inhibition was determined.
as §1

Caspase1 = target: T2, Caspase1 (Homo sapiens, UniProt P29466); assay: yeast 384 well β-galactosidase reporter assay, Caspase1 expressed alone; format: cell-based; conditions: Caspase1 in yeast, 384 well β-galactosidase activity assay
T2 construct: each full-length Caspase construct was expressed (for Caspases-1, 2, 3, 4, 5, 6, 7, and 9) at high levels; FLAG (C); HA (N); expressed in transfected cells; host or cells: Saccharomyces cerevisiae (EGY48)
T2 sequence (P29466 1-404): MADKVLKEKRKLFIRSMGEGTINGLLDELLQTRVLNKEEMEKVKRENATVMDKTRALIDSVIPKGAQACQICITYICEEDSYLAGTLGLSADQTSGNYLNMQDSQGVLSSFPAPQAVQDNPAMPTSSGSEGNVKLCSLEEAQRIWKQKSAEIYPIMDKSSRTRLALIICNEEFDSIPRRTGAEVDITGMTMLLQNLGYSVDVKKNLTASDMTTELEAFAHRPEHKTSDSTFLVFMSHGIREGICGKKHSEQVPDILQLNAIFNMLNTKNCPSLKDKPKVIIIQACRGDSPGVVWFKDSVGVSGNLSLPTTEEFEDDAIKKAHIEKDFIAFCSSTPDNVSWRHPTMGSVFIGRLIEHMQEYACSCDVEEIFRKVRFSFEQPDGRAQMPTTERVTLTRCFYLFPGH
Text: as §2, §3, §1

benzoyl-Valinyl-Alaninyl-Aspartyl-fluoromethylketone [zVAD-fmk]
effect on β-galactosidase activity / activation of the lacZ reporter gene (Caspases; 384 well yeast-based Caspase-dependent reporter gene assay): inhibited β-galactosidase activity in a dose-dependent fashion | IC50 (Caspases; range over the yeast-based Caspase assays, 384 well format, read-out: concentration required for achieving 50% inhibition of β-galactosidase activity): 1 to 10 µM | IC50 [1]: 10.7 µM | IC50 (Caspase1): 3.07 µM
